Assays:
Type in all cases: in vivo, human
[1] = tested on: recreational marijuana users; assay: Wanting More Drug rating (drug craving) after acute dose; details: adjusted for baseline
Description: (§1) FIGS. 2A-2D: Blood Pressure, Pulse and Wanting More Drug Rating, adjusted for Baseline.
(§2) Sessions were completed one-week apart to allow for an adequate washout period between sessions.

[2] = Plasma levels of CBD and THC after acute dose (Example 1 cross-over study); details: over the course of 4.45 hours (285 minutes), recreational marijuana users
Description: FIGS. 1A-1B: Plasma levels of CBD and THC—adjusted for baseline, for each of the dose conditions over the course of […] (285 minutes).
as §2

[3] = Blood pressure and pulse after acute dose (Example 1 safety study); details: recreational marijuana users
Description: as §1, §2
(§3) The first study was directed towards assessing safety of the THC and CBD doses in healthy, recreational cannabis users. […] The novel pain provocation experimental method allowed for detection of this effect within this first safety protocol assessment.

[4] = tested on: recreational marijuana users; assay: Provoked pain and anxiety ratings during adapted CPT protocol; details: versus 40 CBD+20 THC, 100 CBD alone and 40 CBD alone; CBD alone versus CBD with low doses of THC (4:1 and 3:1)
Description: FIGS. 3A-3B: Provoked average pain and anxiety (adjusted for baseline) ratings during adapted CPT protocol.
as §2, §3

| SMILES | average drug craving (want more drug), relative to placebo [1] | plasma THC levels adjusted for baseline, relative to placebo [2] | diastolic BP adjusted for baseline, relative to placebo [3] | plasma CBD levels adjusted for baseline, relative to placebo [2] | reducing pain and stress responses, comparison between dose conditions [4] |
| --- | --- | --- | --- | --- | --- |
| C=C(C)[C@@H]1CCC(C)=C[C@H]1c1c(O)cc(CCCCC)cc1O [CBD40, cannabidiol] | significantly reduced | not |  |  |  |
| C=C(C)[C@@H]1CCC(C)=C[C@H]1c1c(O)cc(CCCCC)cc1O [CBD100, cannabidiol] | significantly reduced | not | significantly increased | significantly increased |  |
| C=C(C)[C@@H]1CCC(C)=C[C@H]1c1c(O)cc(CCCCC)cc1O [CBD, cannabidiol] |  |  |  |  | not as effective |

Reference: patent US20240358726A1, “SPECIFIC T[…] MARIJUANA DOSES FOR STRESS AND PAIN” (Yale University, priority 2021, published 2024)
